The text below walks through data of the NIST ThermoML archive (doi:10.1007/s10765-011-1086-8).

A short description of data set [1]: relative permittivity at various frequencies (dimensionless); xn = mol fraction of the nth substance listed. Conditions: 303.15 K, 101 kPa, Liquid, Frequency=1 MHz, Parallel plate capacitor.
A short description of data set [2]: relative permittivity at various frequencies (dimensionless). Conditions: 303.15 K, 101 kPa, Liquid, Frequency=1 MHz.

± gives the expanded uncertainty stated by the source.

With `CN(C)C=O` [dimethylformamide] + NC=O, in data set [1] (x2 = 0), the relative permittivity is recorded as 36.55 ± 0.22.
As to `NC=O` [formamide] + CN(C)C=O, the relative permittivity is on record as 40.58 ± 0.24 in data set [1] (x1 = 0.122); 45 ± 0.27 in data set [1] (x1 = 0.23); 49.26 ± 0.3 in data set [1] (x1 = 0.327); 53.6 ± 0.32 in data set [1] (x1 = 0.414); 58.17 ± 0.35 in data set [1] (x1 = 0.493); 58.5 ± 0.35 in data set [1] (x1 = 0.5). For the same molecule, the relative permittivity in data set [1] (x1 = 0.565) was 63.22 ± 0.38; in data set [1] (x1 = 0.63) it was 67.66 ± 0.41; in data set [1] (x1 = 0.69), 72.58 ± 0.44; in data set [1] (x1 = 0.745), 77.4 ± 0.46; in data set [1] (x1 = 0.796) it was 82.52 ± 0.5; in data set [1] (x1 = 0.843), 86.95 ± 0.52. Moreover, the relative permittivity came to 91.84 ± 0.55 in data set [1] (x1 = 0.886), 96.1 ± 0.58 in data set [1] (x1 = 0.927), 101.77 ± 0.61 in data set [1] (x1 = 0.965) and 106.14 ± 0.64 in data set [1] (x1 = 1).
With `NC=O` [formamide] + NCCO, the relative permittivity in data set [1] (x1 = 0.144) was found to be 36.91 ± 0.22; in data set [1] (x1 = 0.275) it was 44.61 ± 0.27; in data set [1] (x1 = 0.394), 52.04 ± 0.31; in data set [1] (x1 = 0.5), 59.52 ± 0.36; in data set [1] (x1 = 0.503) it was 59.14 ± 0.35; in data set [1] (x1 = 0.603), 66.34 ± 0.4. Further, the relative permittivity is on record as 74.02 ± 0.44 in data set [1] (x1 = 0.695); 81.77 ± 0.49 in data set [1] (x1 = 0.78); 90.12 ± 0.54 in data set [1] (x1 = 0.859); 97.77 ± 0.59 in data set [1] (x1 = 0.932); 106.14 ± 0.64 in data set [1] (x1 = 1).
In the case of `C[S+](C)[O-]` [dimethyl sulfoxide], the relative permittivity in data set [2] worked out at 46.05 ± 0.28.
For the molecule `O` [water], in data set [2] (Parallel plate capacitor), the relative permittivity is given as 76.53 ± 0.46.
Take `NC=O` [formamide]: in data set [2] (Parallel plate capacitor), the relative permittivity was 106.14 ± 0.64.
On the same count and under the same terms, in the case of `CN(C)C=O` [dimethylformamide] it was 36.55 ± 0.22.
Regarding `C1COCCO1` [1,4-dioxane], the relative permittivity in data set [2] (Parallel plate capacitor) turned out to be 2.26 ± 0.014.
